Like-named read-outs stand apart in the source and are kept apart here.
Assay: Phase I study CXR1002-001: plasma pharmacokinetics (LC-MS/MS)
Type: in vivo, human
Settings: human, plasma, plasma; for concentration at 336 hr: 336 hr (Day 15)
Description: PK samples, PD (fasting) samples, blood glucose, and blood triglyceride samples, were taken over a 6-week period.
Dose limiting toxicity (DLT) will be based on the toxicity assessments over the first 3-week period of the repeat dosing schedule. PK samples (single blood sample) were taken on the following basis: • Every 6 weeks during the repeat dosing phase • If dosing is interrupted or stopped, samples will be taken at intervals according to patient convenience • PK sampling for safety evaluation may take place at any time, as clinically indicated
Plasma samples were collected after the single 50 mg dose at the following timepoints: Pre-dose, and then 0.25, 0.5, 0.75, 1, 1.5, 2, 3, 4, 6, 24, 48, and 72 hours after administration and then once weekly at weeks 2, 3, 4, 5, and 6 (days 8, 15, 22, 29, and 36). For patients treated with the weekly repeat dose, plasma samples were collected at the following timepoints: Pre-dose and then 2, 3, 4 and 24 hours after administration for a total of 6 weeks. Thereafter a single sample was collected every 6 weeks for monitoring of exposure during long term treatment. Plasma samples were processed at site and stored at −80° C. prior to batch shipment to the analytical laboratory.

With `O=C(O)C(F)(F)C(F)(F)C(F)(F)C(F)(F)C(F)(F)C(F)(F)C(F)(F)F` [CXR1002] as the molecule, how does the concentration at 4 hr (oral, 1200 mg, Patient 034, 1200 mg, person, 4 hr, read-out: Concentration) read?
Its concentration at 4 hr is 560 µM.

And the concentration at 24 hr (oral, 1200 mg, Patient 034, 1200 mg, person, 24 hr (Day 2), read-out: Concentration)?
Its concentration at 24 hr is 409 µM.

What about the concentration at 168 hr (oral, 1200 mg, Patient 034, 1200 mg, person, 168 hr (Day 8), read-out: Concentration) of the same molecule?
The concentration at 168 hr was 351 µM.

And the concentration at 170 hr (oral, 1200 mg, Patient 034, 1200 mg, person, 170 hr, read-out: Concentration)?
Its concentration at 170 hr is 893 µM.

And the concentration at 171 hr (oral, 1200 mg, Patient 034, 1200 mg, person, 171 hr, read-out: Concentration)?
The concentration at 171 hr was 771 µM.

And the concentration at 172 hr (oral, 1200 mg, Patient 034, 1200 mg, person, 172 hr, read-out: Concentration)?
The concentration at 172 hr was 730 µM.

And the concentration at 192 hr (oral, 1200 mg, Patient 034, 1200 mg, person, 192 hr (Day 9), read-out: Concentration)?
The concentration at 192 hr was 722 µM.

What about the concentration at 336 hr (oral, 1200 mg, Patient 034, 1200 mg, person, read-out: Concentration) of the same molecule?
Its concentration at 336 hr is 644 µM.

And the concentration at 338 hr (oral, 1200 mg, Patient 034, 1200 mg, person, 338 hr, read-out: Concentration)?
Its concentration at 338 hr is 1030 µM.

What about the concentration at 339 hr (oral, 1200 mg, Patient 034, 1200 mg, person, 339 hr, read-out: Concentration) of the same molecule?
Its concentration at 339 hr is 1120 µM.

What about the concentration at 340 hr (oral, 1200 mg, Patient 034, 1200 mg, person, 340 hr, read-out: Concentration) of the same molecule?
The concentration at 340 hr was 955 µM.

And the concentration at 360 hr (oral, 1200 mg, Patient 034, 1200 mg, person, 360 hr (Day 16), read-out: Concentration)?
Its concentration at 360 hr is 1020 µM.

What about the concentration at 504 hr (oral, 1200 mg, Patient 034, 1200 mg, person, 504 hr (Day 22), read-out: Concentration) of the same molecule?
Its concentration at 504 hr is 924 µM.

And the concentration at 506 hr (oral, 1200 mg, Patient 034, 1200 mg, person, 506 hr, read-out: Concentration)?
The concentration at 506 hr was 1350 µM.

And the concentration at 507 hr (oral, 1200 mg, Patient 034, 1200 mg, person, 507 hr, read-out: Concentration)?
The concentration at 507 hr was 1220 µM.

What about the concentration at 508 hr (oral, 1200 mg, Patient 034, 1200 mg, person, 508 hr, read-out: Concentration) of the same molecule?
The concentration at 508 hr was 1440 µM.

And the concentration at 528 hr (oral, 1200 mg, Patient 034, 1200 mg, person, 528 hr (Day 23), read-out: Concentration)?
The concentration at 528 hr was 1360 µM.

What about the concentration at 672 hr (oral, 1200 mg, Patient 034, 1200 mg, person, 672 hr (Day 29), read-out: Concentration) of the same molecule?
The concentration at 672 hr was 1080 µM.

And the concentration at 674 hr (oral, 1200 mg, Patient 034, 1200 mg, person, 674 hr, read-out: Concentration)?
Its concentration at 674 hr is 1310 µM.

And the concentration at 675 hr (oral, 1200 mg, Patient 034, 1200 mg, person, 675 hr, read-out: Concentration)?
The concentration at 675 hr was 1450 µM.

What about the concentration at 676 hr (oral, 1200 mg, Patient 034, 1200 mg, person, 676 hr, read-out: Concentration) of the same molecule?
Its concentration at 676 hr is 1380 µM.

What about the concentration at 696 hr (oral, 1200 mg, Patient 034, 1200 mg, person, 696 hr (Day 30), read-out: Concentration) of the same molecule?
The concentration at 696 hr was 1310 µM.

And the concentration at 2 hr (oral, 1200 mg, Patient 035, 1200 mg, person, 2 hr, read-out: Concentration)?
Its concentration at 2 hr is 298 µM.

What about the concentration at 3 hr (oral, 1200 mg, Patient 035, 1200 mg, person, 3 hr, read-out: Concentration) of the same molecule?
The concentration at 3 hr was 196 µM.

What about the concentration at 4 hr (oral, 1200 mg, Patient 035, 1200 mg, person, 4 hr, read-out: Concentration) of the same molecule?
The concentration at 4 hr was 317 µM.

And the concentration at 24 hr (oral, 1200 mg, Patient 035, 1200 mg, person, 24 hr (Day 2), read-out: Concentration)?
The concentration at 24 hr was 261 µM.

What about the concentration at 168 h (oral, 1200 mg, Patient 035, 1200 mg, person, 168 hr (Day 8), read-out: Concentration) of the same molecule?
Its concentration at 168 h is 254 µM.

What about the concentration at 170 h (oral, 1200 mg, Patient 035, 1200 mg, person, 170 hr, read-out: Concentration) of the same molecule?
Its concentration at 170 h is 460 µM.

And the concentration at 171 h (oral, 1200 mg, Patient 035, 1200 mg, person, 171 hr, read-out: Concentration)?
Its concentration at 171 h is 479 µM.

And the concentration at 172 h (oral, 1200 mg, Patient 035, 1200 mg, person, 172 hr, read-out: Concentration)?
Its concentration at 172 h is 592 µM.

What about the concentration at 192 h (oral, 1200 mg, Patient 035, 1200 mg, person, 192 hr (Day 9), read-out: Concentration) of the same molecule?
The concentration at 192 h was 543 µM.

And the concentration at 336 hr (oral, 1200 mg, Patient 035, 1200 mg, person, read-out: Concentration)?
The concentration at 336 hr was 476 µM.

And the concentration at 338 hr (oral, 1200 mg, Patient 035, 1200 mg, person, 338 hr, read-out: Concentration)?
Its concentration at 338 hr is 570 µM.

What about the concentration at 339 hr (oral, 1200 mg, Patient 035, 1200 mg, person, 339 hr, read-out: Concentration) of the same molecule?
The concentration at 339 hr was 621 µM.

What about the concentration at 340 hr (oral, 1200 mg, Patient 035, 1200 mg, person, 340 hr, read-out: Concentration) of the same molecule?
The concentration at 340 hr was 649 µM.

What about the concentration at 360 h (oral, 1200 mg, Patient 035, 1200 mg, person, 360 hr (Day 16), read-out: Concentration) of the same molecule?
The concentration at 360 h was 704 µM.

And the concentration at 504 h (oral, 1200 mg, Patient 035, 1200 mg, person, 504 hr (Day 22), read-out: Concentration)?
Its concentration at 504 h is 600 µM.

What about the concentration at 506 h (oral, 1200 mg, Patient 035, 1200 mg, person, 506 hr, read-out: Concentration) of the same molecule?
The concentration at 506 h was 774 µM.

And the concentration at 507 h (oral, 1200 mg, Patient 035, 1200 mg, person, 507 hr, read-out: Concentration)?
Its concentration at 507 h is 925 µM.

And the concentration at 508 h (oral, 1200 mg, Patient 035, 1200 mg, person, 508 hr, read-out: Concentration)?
The concentration at 508 h was 1020 µM.

And the concentration at 2 hr (po, 1000 mg, Patient 041, 1000 mg weekly oral dose, Time 2 hr, read-out: Concentration (plasma level))?
The concentration at 2 hr was 223 µM.

What about the concentration at 3 hr (po, 1000 mg, Patient 041, 1000 mg weekly oral dose, Time 3 hr, read-out: Concentration (plasma level)) of the same molecule?
Its concentration at 3 hr is 233 µM.

What about the concentration at 4 hr (po, 1000 mg, Patient 041, 1000 mg weekly oral dose, Time 4 hr, read-out: Concentration (plasma level)) of the same molecule?
The concentration at 4 hr was 207 µM.

And the concentration at 24 hr (po, 1000 mg, Patient 041, 1000 mg weekly oral dose, Time 24 hr (Day 2), read-out: Concentration (plasma level))?
Its concentration at 24 hr is 175 µM.

What about the concentration at 168 hr (po, 1000 mg, Patient 041, 1000 mg weekly oral dose, Time 168 hr (Day 8), read-out: Concentration (plasma level)) of the same molecule?
The concentration at 168 hr was 171 µM.

And the concentration at 170 hr (po, 1000 mg, Patient 041, 1000 mg weekly oral dose, Time 170 hr, read-out: Concentration (plasma level))?
Its concentration at 170 hr is 342 µM.

What about the concentration at 171 hr (po, 1000 mg, Patient 041, 1000 mg weekly oral dose, Time 171 hr, read-out: Concentration (plasma level)) of the same molecule?
Its concentration at 171 hr is 413 µM.

And the concentration at 172 hr (po, 1000 mg, Patient 041, 1000 mg weekly oral dose, Time 172 hr, read-out: Concentration (plasma level))?
The concentration at 172 hr was 357 µM.

And the concentration at 192 hr (po, 1000 mg, Patient 041, 1000 mg weekly oral dose, Time 192 hr (Day 9), read-out: Concentration (plasma level))?
Its concentration at 192 hr is 396 µM.

What about the concentration at 336 h (po, 1000 mg, Patient 041, 1000 mg weekly oral dose, Time 336 hr (Day 15), read-out: Concentration (plasma level)) of the same molecule?
The concentration at 336 h was 294 µM.

What about the concentration at 338 hr (po, 1000 mg, Patient 041, 1000 mg weekly oral dose, Time 338 hr, read-out: Concentration (plasma level)) of the same molecule?
The concentration at 338 hr was 411 µM.

And the concentration at 339 hr (po, 1000 mg, Patient 041, 1000 mg weekly oral dose, Time 339 hr, read-out: Concentration (plasma level))?
Its concentration at 339 hr is 485 µM.

And the concentration at 340 hr (po, 1000 mg, Patient 041, 1000 mg weekly oral dose, Time 340 hr, read-out: Concentration (plasma level))?
Its concentration at 340 hr is 478 µM.

What about the concentration at 360 hr (po, 1000 mg, Patient 041, 1000 mg weekly oral dose, Time 360 hr (Day 16), read-out: Concentration (plasma level)) of the same molecule?
The concentration at 360 hr was 508 µM.

And the concentration at 504 hr (po, 1000 mg, Patient 041, 1000 mg weekly oral dose, Time 504 hr (Day 22), read-out: Concentration (plasma level))?
The concentration at 504 hr was 558 µM.

What about the concentration at 506 hr (po, 1000 mg, Patient 041, 1000 mg weekly oral dose, Time 506 hr, read-out: Concentration (plasma level)) of the same molecule?
Its concentration at 506 hr is 674 µM.

What about the concentration at 507 hr (po, 1000 mg, Patient 041, 1000 mg weekly oral dose, Time 507 hr, read-out: Concentration (plasma level)) of the same molecule?
The concentration at 507 hr was 748 µM.

And the concentration at 508 hr (po, 1000 mg, Patient 041, 1000 mg weekly oral dose, Time 508 hr, read-out: Concentration (plasma level))?
The concentration at 508 hr was 676 µM.
